Source: patent US5153227A, “Phenylsulfonyl nitromethanes as aldose reductase inhibitors” (Imperial Chemical Industries PLC, priority 1987, dated 1992)
pIC50: −log10 of the molar value.

Target: T1, aldose reductase (Bos taurus, UniProt P16116)
T1 construct: partially purified aldose reductase is isolated in known manner from bovine lenses; from tissue; host or cells: bovine lenses
Experiment: in vitro inhibition of partially purified aldose reductase isolated from bovine lenses (reduction of glucose to sorbitol, spectrophotometric)
Format: biochemical
Conditions: in vitro test, bovine lens aldose reductase
Description: Thus, partially purified aldose reductase is isolated in known manner from bovine lenses. The percentage inhibition of this enzyme's ability in vitro to catalyse the reduction of aldoses to polyhydric alcohols, and particularly to reduce glucose to sorbitol, caused by a test compound is then determined using standard spectrophotometric methods.

A pIC50 of 6.49 was found for `O=[N+]([O-])CS(=O)(=O)c1cccc2ccccc12` [Example 1, (1-naphthylsulphonyl)nitromethane] in this work.
